Experimental data: publication PMC3136713, “Health-Beneficial Phenolic Aldehyde in Antigonon leptopus Tea” (Evidence-based Complementary and Alternative Medicine : eCAM, 2010)
Blank lines part the entries; values can stand above or below the compound they belong to.

Assays:
COX-1 [1] = biological target: T1, COX-1 (Ovis aries, UniProt P05979); assay: O2 uptake cyclooxygenase assay, ram seminal vesicle COX-1; […] inhibition at […]; type: biochemical
T1 construct: gene PTGS1
T1 sequence (P05979 25-600): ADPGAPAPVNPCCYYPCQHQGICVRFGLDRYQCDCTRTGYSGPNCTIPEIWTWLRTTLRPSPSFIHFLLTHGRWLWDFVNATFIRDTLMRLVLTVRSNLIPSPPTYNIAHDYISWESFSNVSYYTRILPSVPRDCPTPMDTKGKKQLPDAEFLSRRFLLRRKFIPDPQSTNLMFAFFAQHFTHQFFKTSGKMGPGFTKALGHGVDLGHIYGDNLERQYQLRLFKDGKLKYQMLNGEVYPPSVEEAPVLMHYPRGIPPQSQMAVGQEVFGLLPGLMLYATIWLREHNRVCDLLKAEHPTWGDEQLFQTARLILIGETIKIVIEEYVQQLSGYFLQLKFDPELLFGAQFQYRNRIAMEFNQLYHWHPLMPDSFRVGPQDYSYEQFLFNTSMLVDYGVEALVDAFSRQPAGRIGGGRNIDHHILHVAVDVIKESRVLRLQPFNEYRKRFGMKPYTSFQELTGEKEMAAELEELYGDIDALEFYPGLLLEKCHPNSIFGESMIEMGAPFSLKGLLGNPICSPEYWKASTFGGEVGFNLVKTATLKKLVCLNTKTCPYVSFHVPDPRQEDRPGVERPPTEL

COX-2 [2] = biological target: T2, COX-2 (Homo sapiens, UniProt P35354); assay: biochemical; settings: read-out: % inhibition at 32 nM
T2 construct: gene PTGS2
T2 sequence (P35354 18-604): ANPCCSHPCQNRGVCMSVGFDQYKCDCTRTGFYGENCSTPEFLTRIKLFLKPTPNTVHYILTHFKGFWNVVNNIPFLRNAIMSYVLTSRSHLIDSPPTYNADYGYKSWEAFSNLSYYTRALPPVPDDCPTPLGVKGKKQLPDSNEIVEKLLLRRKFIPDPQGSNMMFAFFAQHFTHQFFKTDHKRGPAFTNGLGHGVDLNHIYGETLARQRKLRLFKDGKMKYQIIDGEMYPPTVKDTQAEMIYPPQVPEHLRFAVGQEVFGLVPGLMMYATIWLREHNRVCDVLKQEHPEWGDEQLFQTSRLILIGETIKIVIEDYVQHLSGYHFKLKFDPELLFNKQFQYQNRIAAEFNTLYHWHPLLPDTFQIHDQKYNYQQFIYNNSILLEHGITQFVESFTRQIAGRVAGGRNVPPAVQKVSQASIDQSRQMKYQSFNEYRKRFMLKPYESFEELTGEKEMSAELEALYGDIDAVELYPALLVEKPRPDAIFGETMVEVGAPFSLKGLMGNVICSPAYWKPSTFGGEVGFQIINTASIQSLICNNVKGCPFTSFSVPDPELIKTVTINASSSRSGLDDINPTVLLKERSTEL

COX-1 [3] = biological target: T1, COX-1; assay: O2 uptake cyclooxygenase assay, single concentration; type: biochemical; settings: for inhibition at 100 µg/mL: read-out: % inhibition at 100 μg/mL
COX-2 [4] = biological target: T2, COX-2; assay: as above; type: biochemical; settings: read-out: % inhibition at 100 μg/mL

SMILES: CC(=O)Oc1ccccc1C(=O)O [Aspirin]
% inhibition at 60 μM (COX-1 [1]): 69

SMILES: CS(=O)(=O)c1ccc(C2=C(c3ccccc3)C(=O)OC2)cc1 [Vioxx]
inhibition at 0.032 µM (COX-2 [2]): 91%

SMILES: O=Cc1cccc(O)c1O [compound 5, 2,3-dihydroxy benzaldehyde]
inhibition at 100 µg/mL (COX-1 [3]): 68%

inhibition at 100 µg/mL (COX-2 [4]): 61%
SMILES: O=Cc1cc(O)ccc1O [compound 7, 2,5-dihydroxy benzaldehyde]

SMILES: O=Cc1cc(O)cc(O)c1 [compound 9, 3,5-dihydroxy benzaldehyde]
inhibition at 100 µg/mL (COX-1 [3]): 82%

SMILES: O=Cc1c(O)cc(O)cc1O [compound 11, 2,4,6-trihydroxy benzaldehyde]
% inhibition at 100 μg/mL (COX-1 [3]): 86

SMILES: COc1ccccc1C=O [compound 14, Compound 14]
inhibition at 100 µg/mL (COX-1 [3]): 83%

SMILES: COc1cc(C=O)cc(OC)c1 [compound 21, Compound 21]
inhibition at 100 µg/mL (COX-1 [3]): 85%
